Values joined by “and” are separate entries in the source; they are usually repeats but may differ in a detail not shown here. Equal entries are not always repeated. Where two headings read alike, the source gives them in different places.
Target: T1, canine TRPM8 (Canis lupus familiaris, UniProt Q1A7N1)
T1 construct: expressed in transfected cells
Assay: In vitro canine TRPM8 functional assay (Ca2+-sensitive dye, FLIPR/FDSS, icilin activation)
Assay type: cell-based
Settings: HEK293 cells expressing canine TRPM8, icilin activation; for % I (0.5 μM): 0.5 μM compound; for IC50: eight-point dose-response; for % I (1 μM): 1 μM compound
Protocol: The functional activity of compounds of Formula (I) was determined by measuring changes in intracellular calcium concentration using a Ca^2+-sensitive fluorescent dye. The changes in fluorescent signal were monitored by a fluorescence plate reader, either a FLIPR™ (Molecular Devices) or FDSS (Hamamatsu).
HEK293 cells stably expressing canine TRPM8 were routinely grown as monolayers in Dulbecco's minimum essential medium supplemented with 10% FBS, 1 mM L-glutamine, 100 units/mL penicillin, 100 ug/mL streptomycin and 400 μg/mL G418. Cells were maintained in 5% CO2 at 37° C. At 24 hrs prior to assay, cells were seeded in clear-base poly-D-lysine coated 384-well plates (BD Biosciences, NJ, USA) at a density of 5,000 cells per well in culture medium and grown overnight in 5% CO2 at 37° C. On assay day, growth media was removed and cells were loaded with Calcium 3 Dye (Molecular Devices) for 35 min at 37° C., under 5% CO2 and then for 25 min at room temperature and atmosphere. Subsequently, cells were tested for agonist-induced increases in intracellular Ca^2+ levels using FLIPR™ or FDSS. Cells were challenged with a compound of Formula (I) (at varying concentrations) and intracellular Ca^2+ was measured for 5 min prior to the addition of icilin to all wells to achieve a final concentration which produces approximately an 80% maximal response.
Basal FI was subtracted prior to normalizing data to percent of maximal response. Curves were generated using the average of quadruplicate wells for each data point, were analyzed using nonlinear regression of either sigmoidal dose response or sigmoidal dose response (variable slope). Finally, the EC50 and IC50 values were calculated with the best-fit dose curve determined by GraphPad Prism.

[1] = HEK293, 0.5 μM compound, read-out: % I (0.5 μM)
[2] = HEK293, read-out: % I (1 μM), 1 μM compound

T1 sequence (Q1A7N1 1-1104): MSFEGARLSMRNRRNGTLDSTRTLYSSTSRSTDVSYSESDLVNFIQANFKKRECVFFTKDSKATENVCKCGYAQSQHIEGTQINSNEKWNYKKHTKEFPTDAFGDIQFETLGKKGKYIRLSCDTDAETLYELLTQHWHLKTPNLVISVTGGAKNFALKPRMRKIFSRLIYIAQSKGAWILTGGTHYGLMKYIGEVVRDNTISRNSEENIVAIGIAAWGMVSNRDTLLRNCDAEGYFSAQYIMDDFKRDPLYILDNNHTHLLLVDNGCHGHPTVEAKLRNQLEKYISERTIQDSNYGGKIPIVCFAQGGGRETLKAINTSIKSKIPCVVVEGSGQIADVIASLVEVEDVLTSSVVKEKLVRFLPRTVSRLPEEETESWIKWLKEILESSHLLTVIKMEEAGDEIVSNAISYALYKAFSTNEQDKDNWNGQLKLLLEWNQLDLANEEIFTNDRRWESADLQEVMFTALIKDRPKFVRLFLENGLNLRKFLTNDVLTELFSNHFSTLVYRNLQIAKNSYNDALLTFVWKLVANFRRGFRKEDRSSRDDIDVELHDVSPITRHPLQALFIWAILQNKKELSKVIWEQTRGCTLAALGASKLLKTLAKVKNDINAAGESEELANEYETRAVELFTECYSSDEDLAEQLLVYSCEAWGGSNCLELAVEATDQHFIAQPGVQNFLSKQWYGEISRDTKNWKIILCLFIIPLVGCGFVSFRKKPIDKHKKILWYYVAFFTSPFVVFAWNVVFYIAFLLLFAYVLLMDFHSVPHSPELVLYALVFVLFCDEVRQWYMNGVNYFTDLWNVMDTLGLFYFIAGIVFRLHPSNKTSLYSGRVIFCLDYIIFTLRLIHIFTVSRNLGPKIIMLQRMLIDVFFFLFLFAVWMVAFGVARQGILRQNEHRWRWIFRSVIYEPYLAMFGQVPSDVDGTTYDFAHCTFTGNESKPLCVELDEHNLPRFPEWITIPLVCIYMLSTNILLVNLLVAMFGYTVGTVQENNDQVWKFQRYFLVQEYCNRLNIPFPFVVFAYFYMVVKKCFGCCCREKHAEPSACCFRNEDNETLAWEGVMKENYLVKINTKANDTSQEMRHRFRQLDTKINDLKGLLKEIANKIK

Row | Compound | % I (0.5 μM) | IC50 (read-out: IC50) | other results
1 | CCOP(=O)(OCC)C(Cc1cc(Cl)ccc1F)c1sc2ccccc2c1Cl (racemic) [Cpd 305] | 102% | 0.07 µM | 
2 | CC(C)OP(=O)(OC(C)C)[C@H](Cc1ccc(F)c(C(F)(F)F)c1)c1sc2ccccc2c1Br [Cpd 243, (R)-[1-(3-Bromo-benzo[b]thiophen-2-yl)-2-(4-fluoro-3-trifluoromethyl-phenyl)-ethyl]-phosphonic acid diisopropyl ester] |  | 0.089 µM | inhibition at 0.5 µM [1]: 80%
3 | CC(C)OP(=O)(OC(C)C)C(Cc1ccc(Cl)cc1)c1sc2ccccc2c1Cl (stereo not drawn) [Cpd 181] | 103% | 0.112 µM | 
4 | CCOP(=O)(OCC)C(Cc1cccc(C(F)(F)F)c1)c1sc2ccccc2c1Br (stereo not drawn) [Cpd 141] | 100% | 0.051 µM | 
5 | Cc1c(C(OCc2ccc(F)c(F)c2)P(=O)(CC(C)C)CC(C)C)sc2ccccc12 (stereo not drawn) [Cpd 13, 2-[(3,4-Difluoro-benzyloxy)-(diisobutyl-phosphinoyl)-methyl]-3-methyl-benzo[b]thiophene] |  | 0.046 µM | inhibition at 1 µM (HEK293, 1 μM compound, read-out: % I (1 μM)): 100%
6 | CCOP(=O)(OCC)C(Cc1ccc(C(F)(F)F)c(F)c1)c1sc2ccccc2c1Cl (stereo not drawn) [Cpd 273] | 103% | 0.116 µM | 
7 | CCOP(=O)(OCC)C(Cc1cc(C(F)(F)F)cc(C(F)(F)F)c1)c1sc2ccccc2c1Cl (racemic) [Cpd 282] | 100% | 0.235 µM | 
8 | CCOP(=O)(OCC)C(Cc1ccc(F)cc1)c1sc2ccccc2c1Cl (racemic) [Cpd 284] | 103% and 102% | 0.079 µM and 0.065 µM | 
9 | CSc1ccc(CC(c2sc3ccccc3c2Cl)P(=O)(OC(C)C)OC(C)C)cc1 (stereo not drawn) [Cpd 256] | 103% | 0.056 µM | 
10 | COc1cc(CC(c2sc3ccccc3c2Br)P(=O)(OC(C)C)OC(C)C)ccc1F (racemic) [Cpd 157] | 103% and 98% |  | 
11 | CCOP(=O)(OCC)C(Cc1ccc(O)cc1)c1sc2ccccc2c1Br (stereo not drawn) [Cpd 324] | 54% |  | 
12 | CC(C)OP(=O)(OC(C)C)C(Cc1ccc(O)c(F)c1)c1sc2ccccc2c1Br (racemic) [Cpd 227] | 52% |  | 
13 | CC(C)OP(=O)(OC(C)C)C(Cc1ccc(F)c(C(F)(F)F)c1)c1sc2ccccc2c1Cl (stereo not drawn) [Cpd 188] | 103% | 0.064 µM | 
14 | CCOP(=O)(OCC)C(Cc1cccc(OC(F)(F)F)c1)c1sc2ccccc2c1C (stereo not drawn) [Cpd 57] |  | 0.26 µM | % I (1 μM): 100%
15 | CC(C)OP(=O)(OC(C)C)C(Cc1cccc(C(F)(F)F)c1)c1cc2ccccc2s1 (stereo not drawn) [Cpd 69] |  | 0.35 µM | % I (1 μM): 99%
16 | (R)-[1-(3-Bromo-benzo[b]thiophen-2-yl)-2-(4-fluoro-phenyl)-ethyl]-phosphonic acid diisopropyl ester [Cpd 240] | 98% and 77% |  | 
17 | CCOP(=O)(OCC)C(Cc1cccc(-c2ccccc2)c1)c1sc2ccccc2c1C (stereo not drawn) [Cpd 77] |  |  | inhibition at 1 µM [2]: 98%; IC50 (IC50 (μM)): 0.41 µM
18 | CC(C)OP(=O)(OC(C)C)C(Cc1cccc(Cl)c1)c1sc2ccccc2c1Br (racemic) [Cpd 166] | 102% | 0.018 µM and 0.014 µM | % I (1 μM): 103%
19 | CCOP(=O)(OCC)C(Cc1ccc(F)c(F)c1)c1sc2ccccc2c1-c1ccccc1 (stereo not drawn) [Cpd 214, [2-(3,4-Difluoro-phenyl)-1-(3-phenyl-benzo[b]thiophen-2-yl)-ethyl]-phosphonic acid diethyl ester] |  |  | inhibition at 0.5 µM (HEK293, read-out: % I (0.5 μM), 0.5 μM compound): 101%; IC50 (IC50 (μM)): 0.08 µM
20 | COc1cccc(CC(c2sc3ccccc3c2Br)P(=O)(OC(C)C)OC(C)C)c1 (stereo not drawn) [Cpd 317] | 102% | 0.021 µM | 
21 | CCOP(=O)(OCC)C(Cc1ccc(S(=O)(=O)C(F)(F)F)cc1)c1sc2ccccc2c1Cl (racemic) [Cpd 300] | 103% | 0.089 µM | 
22 | COC(=O)COP(=O)(OCC(=O)OC)C(Cc1ccc(F)c(F)c1)c1sc2ccccc2c1Br (stereo not drawn) [Cpd 212, {[1-(3-Bromo-benzo[b]thiophen-2-yl)-2-(3,4-difluoro-phenyl)-ethyl]-methoxycarbonylmethoxy-phosphinoyloxy}-acetic acid methyl ester] |  | 0.119 µM | inhibition at 0.5 µM [1]: 102%
23 | CCOP(=O)(OCC)C(Cc1ccc(F)c(F)c1)c1sc2cccc(Cl)c2c1C (stereo not drawn) [Cpd 65, [1-(4-Chloro-3-methyl-benzo[b]thiophen-2-yl)-2-(3,4-difluoro-phenyl)-ethyl]-phosphonic acid diethyl ester] |  |  | inhibition at 1 µM [2]: 100%; IC50 (IC50 (μM)): 0.3 µM
24 | CCOP(=O)(OCC)C(Cc1ccc(F)c(F)c1)c1sc2c(C(F)(F)F)cccc2c1C (stereo not drawn) [Cpd 116] |  |  | % I (1 μM): 64%
25 | CCOP(=O)(OCC)C(Cc1cc(C(F)(F)F)ccc1C(F)(F)F)c1sc2ccccc2c1C (stereo not drawn) [Cpd 113] |  |  | % I (1 μM): 25%

Row | Compound | % I (0.5 μM) | IC50 (read-out: IC50) | other results
26 | CCOP(=O)(OCC)C(Cc1ccccc1C(F)(F)F)c1sc2ccccc2c1Br (stereo not drawn) [Cpd 260] | 103% | 0.077 µM and 0.056 µM | 
27 | CCOP(=O)(OCC)C(Cc1ccccc1C(F)(F)F)c1sc2ccccc2c1Cl (racemic) [Cpd 279] | 97% | 0.291 µM | 
28 | CC(C)OP(=O)(OC(C)C)C(Cc1ccc(Cl)c(F)c1)c1sc2ccccc2c1Cl (racemic) [Cpd 302] | 103% | 0.079 µM | 
29 | CCOP(=O)(OCC)C(Cc1ccc(SC)cc1)c1sc2ccccc2c1Br (racemic) [Cpd 247] | 103% | 0.121 µM | 
30 | CC(C)OP(=O)(OC(C)C)C(Cc1ccc(S(=O)(=O)C(F)(F)F)cc1)c1sc2ccccc2c1Cl (stereo not drawn) [Cpd 264] | 103% | 0.029 µM | 
31 | Cc1c(C(Cc2ccc(F)c(F)c2)P(=O)(OC(C)C)OC(C)C)oc2ccccc12 (stereo not drawn) [Cpd 11] |  | 0.043 µM and 0.047 µM | % I (1 μM): 99% and 103%
32 | CCOP(=O)(OCC)C(Cc1ccc(C(F)(F)F)c(F)c1)c1cc2ccccc2s1 (stereo not drawn) [Cpd 58] |  | 0.27 µM | % I (1 μM): 100%
33 | CC(C)OP(=O)(OC(C)C)C(Cc1ccc(F)cc1C(F)(F)F)c1sc2ccccc2c1Cl (stereo not drawn) [Cpd 254] | 103% | 0.079 µM | 
34 | CCOP(=O)(OCC)C(Cc1ccccc1Br)c1sc2ccccc2c1C (stereo not drawn) [Cpd 66] |  | 0.33 µM | % I (1 μM): 100%
35 | CC(C)OP(=O)(OC(C)C)C(Cc1ccc(Cl)c(C(F)(F)F)c1)c1sc2ccccc2c1Cl (racemic) [Cpd 167] | 104% | 0.097 µM | 
36 | CC(C)OP(=O)(OC(C)C)C(Cc1ccc(F)cc1)c1sc2cc(Br)ccc2c1Br (stereo not drawn) [Cpd 200] |  |  | % I (1 μM): 81%
37 | CCOP(=O)(OCC)C(Cc1cccc(OC)c1F)c1sc2ccccc2c1Br (racemic) [Cpd 162] | 103% | 0.032 µM | 
38 | CCOP(=O)(OCC)C(C)(Cc1ccc(F)c(F)c1)c1sc2ccccc2c1C (stereo not drawn) [Cpd 79, [2-(3,4-Difluoro-phenyl)-1-methyl-1-(3-methyl-benzo[b]-thiophen-2-yl)-ethyl]-phosphonic acid diethyl ester] |  |  | inhibition at 1 µM [2]: 88%; IC50 (IC50 (μM)): 0.43 µM
39 | COc1cc(CC(c2sc3ccccc3c2Br)P(=O)(OC(C)C)OC(C)C)c(F)cc1Cl (racemic) [Cpd 165] | 102% | 0.086 µM | 
40 | CCOP(=O)(OCC)C(Cc1cc(O)c(Cl)cc1F)c1sc2ccccc2c1Br (racemic) [Cpd 231] | 98% | 0.122 µM | 
41 | CC(C)OP(=O)(OC(C)C)C(Cc1ccc(F)c(F)c1)c1sc2ccccc2c1C1CCCC1 (stereo not drawn) [Cpd 38] |  | 0.14 µM | % I (1 μM): 99%
42 | CCOP(=O)(Cc1cc2ccccc2s1)OCc1ccccc1Cl (racemic) [Cpd 105] |  | 1.01 µM | % I (1 μM): 48%; % I (5 μM) (5 μM compound): 100%
43 | CCOP(=O)(OCC)C(Cc1ccc(F)c(F)c1)c1sc2ccccc2c1-c1cccc(C(N)=O)c1 (racemic) [Cpd 218] | 79% | 0.483 µM | 
44 | CC(C)OP(=O)(OC(C)C)C(Cc1cccc(O)c1)c1sc2ccccc2c1Br (stereo not drawn) [Cpd 325] | 97% | 0.01 µM | 
45 | CC(C)OP(=O)(OC(C)C)C(Cc1ccc(F)c(Cl)c1)c1sc2ccccc2c1Cl (stereo not drawn) [Cpd 253] | 103% | 0.034 µM | 
46 | CCOP(=O)(OCC)C(Cc1ccccc1OC(F)(F)F)c1sc2ccccc2c1C (stereo not drawn) [Cpd 61] |  | 0.28 µM | % I (1 μM): 100%
47 | CC(C)OP(=O)(OC(C)C)C(Cc1c(Cl)cccc1Cl)c1sc2ccccc2c1Cl (stereo not drawn) [Cpd 183] | 103% | 0.131 µM | 
48 | CC(C)OP(=O)(OC(C)C)C(Cc1cccc(OC(F)(F)F)c1)c1sc2ccccc2c1Cl (racemic) [Cpd 301] | 102% | 0.054 µM | 
49 | CCOP(=O)(OCC)C(Cc1ccccc1Cl)c1sc2ccccc2c1Br (racemic) [Cpd 147] | 103% | 0.125 µM | 
